Data taken from patent US10131652B2, “Pyrimidinyloxy benzene derivatives as herbicides” (E. I. DU PONT DE NEMOURS AND COMPANY, priority 2014, dated 2018).

Columns and labels:
Experiment in all cases: Test F pre-/postemergence plant response
Assay type in all cases: in vivo
Conditions in all cases: scale 0 to 100
kochia (Kochia scoparia) = test system: kochia (Kochia scoparia)
Procedure, shortened: (§1)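 In a greenhouse, compounds carried in a non-phytotoxic surfactant-containing solvent mixture were applied to soil at planting and to young 1- to 4-leaf plants. About two to three weeks (14 to 21 days) afterward, each species was compared with controls and rated visually from 0 to 100.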

[1] = test system: johnsongrass (Sorghum halepense)
Procedure, shortened: as §1

[2] = test system: dayflower (Virginia (VA) dayflower, Commelina virginica)
Procedure, shortened: as §1

[3] = test system: giant foxtail (Setaria faberii)
Procedure, shortened: as §1

[4] = test system: surinam grass (Brachiaria decumbens)
Procedure, shortened: as §1

[5] = test system: lambsquarters (Chenopodium album)
Procedure, shortened: as §1

soybean (Glycine max) = test system: soybean (Glycine max)
Procedure, shortened: as §1

[6] = test system: wild poinsettia (Euphorbia heterophylla)
Procedure, shortened: as §1

[7] = test system: green foxtail (Setaria viridis)
Procedure, shortened: as §1

[8] = test system: morningglory (Ipomoea coccinea)
Procedure, shortened: as §1

[9] = test system: large (Lg) crabgrass (Digitaria sanguinalis)
Procedure, shortened: as §1

[10] = test system: yellow nutsedge (Cyperus esculentus)
Procedure, shortened: as §1

[11] = test system: ragweed (common ragweed, Ambrosia elatior)
Procedure, shortened: as §1

[12] = test system: field bindweed (Convolvulus arvensis)
Procedure, shortened: as §1

[13] = test system: waterhemp (common waterhemp, Amaranthus rudis)
Procedure, shortened: as §1

[14] = test system: barnyardgrass (Echinochloa crus-galli)
Procedure, shortened: as §1

[15] = test system: Italian ryegrass (Lolium multiflorum)
Procedure, shortened: as §1

What does the source list for CC(F)(F)c1cc(-c2ccccc2Oc2ncc(Br)cn2)no1 [Compound 149]?
Plant response rating, Kochia (kochia (Kochia scoparia); 16 g ai/ha Postemergence): 60; Plant response rating, Kochia (kochia (Kochia scoparia); 16 g ai/ha Preemergence): 0; Plant response rating, Kochia (kochia (Kochia scoparia); 31 g ai/ha Postemergence): 80; Plant response rating, Kochia (kochia (Kochia scoparia); 31 g ai/ha Preemergence): 0; Plant response rating, Kochia (kochia (Kochia scoparia); 62 g ai/ha Postemergence): 90; Plant response rating, Kochia (kochia (Kochia scoparia); 125 g ai/ha Postemergence): 95; Plant response rating, Kochia (kochia (Kochia scoparia); 125 g ai/ha Preemergence): 90; Plant response rating, Kochia (kochia (Kochia scoparia); Preemergence): 75; Plant response rating, Johnsongrass ([1]; 16 g ai/ha Preemergence): 0; Plant response rating, Johnsongrass ([1]; 31 g ai/ha Preemergence): 0; Plant response rating, Johnsongrass ([1]; 125 g ai/ha Preemergence): 15; Plant response rating, Johnsongrass ([1]; Preemergence): 0; Plant response rating, Dayflower, VA ([2]; 16 g ai/ha Postemergence): 10; Plant response rating, Dayflower, VA ([2]; 16 g ai/ha Preemergence): 0; Plant response rating, Dayflower, VA ([2]; 31 g ai/ha Postemergence): 20; Plant response rating, Dayflower, VA ([2]; 31 g ai/ha Preemergence): 0; Plant response rating, Dayflower, VA ([2]; 62 g ai/ha Postemergence): 40; Plant response rating, Dayflower, VA ([2]; 62 g ai/ha Preemergence): 5; Plant response rating, Dayflower, VA ([2]; 125 g ai/ha Postemergence): 50; Plant response rating, Dayflower, VA ([2]; 125 g ai/ha Preemergence): 40; Plant response rating, Foxtail, Giant ([3]; 16 g ai/ha Preemergence): 0; Plant response rating, Foxtail, Giant ([3]; 31 g ai/ha Preemergence): 20; Plant response rating, Foxtail, Giant ([3]; 62 g ai/ha Preemergence): 40; Plant response rating, Foxtail, Giant ([3]; 125 g ai/ha Preemergence): 85; Plant response rating, Surinam Grass ([4]; 16 g ai/ha Preemergence): 0; Plant response rating, Surinam Grass ([4]; 31 g ai/ha Preemergence): 0; Plant response rating, Surinam Grass ([4]; 125 g ai/ha Preemergence): 15; Plant response rating, Surinam Grass ([4]; Preemergence): 15; Plant response rating, Lambsquarters ([5]; 31 g ai/ha Preemergence): 0; Plant response rating, Lambsquarters ([5]; 125 g ai/ha Preemergence): 100; Plant response rating, Lambsquarters ([5]; Preemergence): 100; Plant response rating, Soybean (soybean (Glycine max); 16 g ai/ha Postemergence): 50; Plant response rating, Soybean (soybean (Glycine max); 16 g ai/ha Preemergence): 0; Plant response rating, Soybean (soybean (Glycine max); 31 g ai/ha Postemergence): 85; Plant response rating, Soybean (soybean (Glycine max); 31 g ai/ha Preemergence): 0; Plant response rating, Soybean (soybean (Glycine max); 62 g ai/ha Postemergence): 90; Plant response rating, Soybean (soybean (Glycine max); 125 g ai/ha Postemergence): 90; Plant response rating, Soybean (soybean (Glycine max); 125 g ai/ha Preemergence): 30; Plant response rating, Soybean (soybean (Glycine max); Preemergence): 0; Plant response rating, Poinsettia, Wild ([6]; 16 g ai/ha Postemergence): 50; Plant response rating, Poinsettia, Wild ([6]; 16 g ai/ha Preemergence): 0; Plant response rating, Poinsettia, Wild ([6]; 31 g ai/ha Postemergence): 40; Plant response rating, Poinsettia, Wild ([6]; 31 g ai/ha Preemergence): 0; Plant response rating, Poinsettia, Wild ([6]; 62 g ai/ha Postemergence): 60; Plant response rating, Poinsettia, Wild ([6]; 125 g ai/ha Postemergence): 70; Plant response rating, Poinsettia, Wild ([6]; 125 g ai/ha Preemergence): 35; Plant response rating, Poinsettia, Wild ([6]; Preemergence): 0; Plant response rating, Foxtail, Green ([7]; 16 g ai/ha Preemergence): 0; Plant response rating, Foxtail, Green ([7]; 31 g ai/ha Preemergence): 0; Plant response rating, Foxtail, Green ([7]; 125 g ai/ha Preemergence): 50; Plant response rating, Foxtail, Green ([7]; Preemergence): 50; Plant response rating, Morningglory ([8]; 16 g ai/ha Preemergence): 0; Plant response rating, Morningglory ([8]; 31 g ai/ha Preemergence): 0; Plant response rating, Morningglory ([8]; 125 g ai/ha Preemergence): 10; Plant response rating, Morningglory ([8]; Preemergence): 0; Plant response rating, Crabgrass, Large ([9]; 16 g ai/ha Preemergence): 0; Plant response rating, Crabgrass, Large ([9]; 31 g ai/ha Preemergence): 0; Plant response rating, Crabgrass, Large ([9]; 62 g ai/ha Preemergence): 70; Plant response rating, Crabgrass, Large ([9]; 125 g ai/ha Preemergence): 85; Plant response rating, Nutsedge, Yellow ([10]; 16 g ai/ha Preemergence): 0; Plant response rating, Nutsedge, Yellow ([10]; 31 g ai/ha Preemergence): 0; Plant response rating, Nutsedge, Yellow ([10]; 125 g ai/ha Preemergence): 15; Plant response rating, Nutsedge, Yellow ([10]; Preemergence): 0; Plant response rating, Ragweed ([11]; 16 g ai/ha Postemergence): 10; Plant response rating, Ragweed ([11]; 16 g ai/ha Preemergence): 20; Plant response rating, Ragweed ([11]; 31 g ai/ha Postemergence): 40; Plant response rating, Ragweed ([11]; 31 g ai/ha Preemergence): 25; Plant response rating, Ragweed ([11]; 62 g ai/ha Postemergence): 30; Plant response rating, Ragweed ([11]; 125 g ai/ha Postemergence): 35; Plant response rating, Ragweed ([11]; 125 g ai/ha Preemergence): 20; Plant response rating, Ragweed ([11]; Preemergence): 35; Plant response rating, Field Bindweed ([12]; 16 g ai/ha Postemergence): 60; Plant response rating, Field Bindweed ([12]; 16 g ai/ha Preemergence): 0; Plant response rating, Field Bindweed ([12]; 31 g ai/ha Postemergence): 50; Plant response rating, Field Bindweed ([12]; 31 g ai/ha Preemergence): 50; Plant response rating, Field Bindweed ([12]; 62 g ai/ha Postemergence): 50; Plant response rating, Field Bindweed ([12]; 62 g ai/ha Preemergence): 35; Plant response rating, Field Bindweed ([12]; 125 g ai/ha Postemergence): 75; Plant response rating, Field Bindweed ([12]; 125 g ai/ha Preemergence): 25; Plant response rating, Waterhemp ([13]; 16 g ai/ha Postemergence): 85; Plant response rating, Waterhemp ([13]; 16 g ai/ha Preemergence): 35; Plant response rating, Waterhemp ([13]; 31 g ai/ha Postemergence): 95; Plant response rating, Waterhemp ([13]; 31 g ai/ha Preemergence): 100; Plant response rating, Waterhemp ([13]; 62 g ai/ha Postemergence): 95; Plant response rating, Waterhemp ([13]; 125 g ai/ha Postemergence): 98; Plant response rating, Waterhemp ([13]; 125 g ai/ha Preemergence): 100; Plant response rating, Waterhemp ([13]; Preemergence): 100; Plant response rating, Barnyardgrass ([14]; 16 g ai/ha Postemergence): 0; Plant response rating, Barnyardgrass ([14]; 16 g ai/ha Preemergence): 0; Plant response rating, Barnyardgrass ([14]; 31 g ai/ha Postemergence): 5; Plant response rating, Barnyardgrass ([14]; 31 g ai/ha Preemergence): 0; Plant response rating, Barnyardgrass ([14]; 62 g ai/ha Postemergence): 10; Plant response rating, Barnyardgrass ([14]; 62 g ai/ha Preemergence): 15; Plant response rating, Barnyardgrass ([14]; 125 g ai/ha Postemergence): 10; Plant response rating, Barnyardgrass ([14]; 125 g ai/ha Preemergence): 35; Plant response rating, Ryegrass, Italian ([15]; 16 g ai/ha Postemergence): 0; Plant response rating, Ryegrass, Italian ([15]; 16 g ai/ha Preemergence): 0; Plant response rating, Ryegrass, Italian ([15]; 31 g ai/ha Postemergence): 10; Plant response rating, Ryegrass, Italian ([15]; 31 g ai/ha Preemergence): 0; Plant response rating, Ryegrass, Italian ([15]; 62 g ai/ha Postemergence): 10; Plant response rating, Ryegrass, Italian ([15]; 125 g ai/ha Postemergence): 5; Plant response rating, Ryegrass, Italian ([15]; 125 g ai/ha Preemergence): 40; Plant response rating, Ryegrass, Italian ([15]; Preemergence): 20
